From patent US11382918B2, “Methods for treating Huntington's Disease” (PTC Therapeutics, Inc., priority 2017, dated 2022)
Structures can show the parent of a compound that is named as a salt.

System: Endogenous Huntingtin Protein (HTT)
Assay: Endogenous Huntingtin Protein Assay (ELISA-based MSD electrochemiluminescence)
Format: cell-based
Settings: Table 1
Protocol: Compounds of Formula (I) were tested using the Meso Scale Discovery (MSD) Assay provided in International Application No. PCT/US2016/066042, filed on Dec. 11, 2016 and claiming priority to U.S. Provisional Application 62/265,652 filed on Dec. 10, 2015, published as International Publication No. WO 2017/100726 on Jun. 15, 2017, the entire contents of which are incorporated herein by reference.
The Endogenous Huntingtin Protein assay used in Example 1 was developed using the ELISA-based MSD electrochemiluminescence assay platform.
Endogenous Huntingtin Protein Assay
Meso Scale Discovery (MSD) 96-well or 384-well plates were coated overnight at 4° C. with MW1 (expanded polyglutamine) or MAB2166 monoclonal antibody (for capture) at a concentration of 1 μg/mL in PBS (30 μL per well). Plates were then washed three times with 300 µL wash buffer (0.05% Tween-20 in PBS) and blocked (100 μL blocking buffer; 5% BSA in PBS) for 4-5 hours at room temperature with rotational shaking and then washed three times with wash buffer.
Samples (25 μL) were transferred to the antibody-coated MSD plate and incubated overnight at 4° C. After removal of the lysates, the plate was washed three times with wash buffer, and 25 μL of #5656S (Cell signaling; rabbit monoclonal) secondary antibody (diluted to 0.25 μg/mL in 0.05% Tween-20 in blocking buffer) was added to each well and incubated with shaking for 1 Hour at room temperature. Following incubation with the secondary antibody, the wells were rinsed with wash buffer after which 25 μL of goat anti-rabbit SULFO TAG secondary detection antibody (required aspect of the MSD system) (diluted to 0.25 μg/mL in 0.05% Tween-20 in blocking buffer) was added to each well and incubated with shaking for 1 hour at room temperature. After rinsing three times with wash buffer, 150 μL of read buffer T with surfactant (MSD) were added to each empty well, and the plate was imaged on a SI 6000 imager (MSD) according to manufacturers' instructions provided for 96- or 384-well plates.

IC50	Structure (SMILES)
3000 to 33000 nM	Cc1cn2cc(-c3cc(=O)n4cc(N5CCNCC5)ccc4n3)nc2c(C)n1 [compound 118, 2-(6,8-dimethylimidazo[1,2-a]pyrazin-2-yl)-7-(piperazin-1-yl)-4H-pyrido[1,2-a]pyrimidin-4-one]
3000 to 33000 nM	CCN1CCC(c2cn3c(=O)cc(-c4ccc5nc(C)cn5c4)nc3cn2)CC1 [compound 580, 7-(1-ethylpiperidin-4-yl)-2-(2-methylimidazo[1,2-a]pyridin-6-yl)-4H-pyrazino[1,2-a]pyrimidin-4-one]
3000 to 33000 nM	Cn1ccc2cc(-c3cc(=O)n4cc(N5CCNCC5)ccc4n3)cnc21 [compound 129, 2-(1-methyl-1H-pyrrolo[2,3-b]pyridin-5-yl)-7-(piperazin-1-yl)-4H-pyrido[1,2-a]pyrimidin-4-one]
100 to 500 nM	Cc1nc2c(F)cc(-c3cc(=O)n4cc(N5CCNCC5)ccc4n3)cc2o1 [compound 305, 2-(4-fluoro-2-methyl-1,3-benzoxazol-6-yl)-7-(piperazin-1-yl)-4H-pyrido[1,2-a]pyrimidin-4-one]
3000 to 33000 nM	O=c1cc(-c2cncc(Cl)c2)nc2ccc(N3CCNCC3)cn12 [compound 94, 2-(5-chloropyridin-3-yl)-7-(piperazin-1-yl)-4H-pyrido[1,2-a]pyrimidin-4-one]
3000 to 33000 nM	Cc1cn2cc(-c3cc(=O)n4cc(N5CCN(C)CC5)ccc4n3)ccc2n1 [compound 114, 2-(2-methylimidazo[1,2-a]pyridin-6-yl)-7-(4-methylpiperazin-1-yl)-4H-pyrido[1,2-a]pyrimidin-4-one]
3000 to 33000 nM	Cc1cn2cc(-c3cc(=O)n4cc(N5CCN[C@@H](C)C5)ccc4n3)cc(C(F)(F)F)c2n1 [compound 735, 7-[(3S)-3-methylpiperazin-1-yl]-2-[2-methyl-8-(trifluoromethyl)imidazo[1,2-a]pyridin-6-yl]-4H-pyrido[1,2-a]pyrimidin-4-one]
3000 to 33000 nM	Cc1nc(O)c2cc(-c3cc(=O)n4cc(N5CCNCC5)ccc4n3)ccc2n1 [compound 840, 2-(4-hydroxy-2-methylquinazolin-6-yl)-7-(piperazin-1-yl)-4H-pyrido[1,2-a]pyrimidin-4-one]
1000 to 3000 nM	Cc1cn2cc(-c3cc(=O)n4cc(N5CCNCC5)ccc4n3)nc2cn1 [compound 74, 2-(6-methylimidazo[1,2-a]pyrazin-2-yl)-7-(piperazin-1-yl)-4H-pyrido[1,2-a]pyrimidin-4-one]
500 to 1000 nM	Cc1cc(-c2cc(=O)n3cc(N4CCN[C@H](C)C4)ccc3n2)cc2cn(C)nc12 [compound 741, 2-(2,7-dimethyl-2H-indazol-5-yl)-7-[(3R)-3-methylpiperazin-1-yl]-4H-pyrido[1,2-a]pyrimidin-4-one]
3000 to 33000 nM	Cc1cn2nc(-c3cc(=O)n4cc(N5CCN(C)CC5)ccc4n3)cc2c(C2CC2)n1 [compound 684, 2-(4-cyclopropyl-6-methylpyrazolo[1,5-a]pyrazin-2-yl)-7-(4-methylpiperazin-1-yl)-4H-pyrido[1,2-a]pyrimidin-4-one]
500 to 1000 nM	Cc1cn2cc(-c3cc(=O)n4cc(C5CCNCC5)ncc4n3)ccc2n1 [compound 585, 2-(2-methylimidazo[1,2-a]pyridin-6-yl)-7-(piperidin-4-yl)-4H-pyrazino[1,2-a]pyrimidin-4-one]
3000 to 33000 nM	CCN1CCN(c2ccc3nc(-c4cc5c(C6CC6)nc(C)cn5n4)cc(=O)n3c2)CC1 [compound 685, 2-(4-cyclopropyl-6-methylpyrazolo[1,5-a]pyrazin-2-yl)-7-(4-ethylpiperazin-1-yl)-4H-pyrido[1,2-a]pyrimidin-4-one]
1000 to 3000 nM	Cc1cn2cc(-c3cc(=O)n4cc(C5CCN(C(C)C)CC5)ncc4n3)ccc2n1 [compound 627, 2-(2-methylimidazo[1,2-a]pyridin-6-yl)-7-[1-(propan-2-yl)piperidin-4-yl]-4H-pyrazino[1,2-a]pyrimidin-4-one]
1000 to 3000 nM	Cc1cn2nc(-c3cc(=O)n4cc(N5CCNCC5)ccc4n3)cc2c(C)n1 [compound 120, 2-(4,6-dimethylpyrazolo[1,5-a]pyrazin-2-yl)-7-(piperazin-1-yl)-4H-pyrido[1,2-a]pyrimidin-4-one]
3000 to 33000 nM	CCc1cn2cc(-c3cc(=O)n4cc(N5CCNCC5)ccc4n3)ccc2n1 [compound 124, 2-(2-ethylimidazo[1,2-a]pyridin-6-yl)-7-(piperazin-1-yl)-4H-pyrido[1,2-a]pyrimidin-4-one]

The next lines start with the molecule.

Structure (SMILES)	IC50
CCc1cc(-c2cc(=O)n3cc(C4CCNCC4)ccc3n2)cn2cc(C)nc12 [compound 696, 2-(8-ethyl-2-methylimidazo[1,2-a]pyridin-6-yl)-7-(piperidin-4-yl)-4H-pyrido[1,2-a]pyrimidin-4-one]	< 100 nM
Cc1cc2cc(-c3cc(=O)n4cc(C5=CCNCC5)ccc4n3)ccn2n1 [compound 857, 2-(2-methylpyrazolo[1,5-a]pyridin-5-yl)-7-(1,2,3,6-tetrahydropyridin-4-yl)-4H-pyrido[1,2-a]pyrimidin-4-one]	500 to 1000 nM
Cc1cn2cc(-c3ccc4nc(C5CCNCC5)cc(=O)n4c3)cc(F)c2n1 [compound 410, 7-(8-fluoro-2-methylimidazo[1,2-a]pyridin-6-yl)-2-(piperidin-4-yl)-4H-pyrido[1,2-a]pyrimidin-4-one]	500 to 1000 nM
Cc1cc(-c2cc(=O)n3cc(C4=CCNCC4)ccc3n2)nc2cnn(C)c12 [compound 860, 2-(1,7-dimethyl-1H-pyrazolo[4,3-b]pyridin-5-yl)-7-(1,2,3,6-tetrahydropyridin-4-yl)-4H-pyrido[1,2-a]pyrimidin-4-one hydrochloride (1:2)]	3000 to 33000 nM
Cn1cc2cc(-c3cc(=O)n4cc(C5CCN(CCO)CC5)ncc4n3)ccc2n1 [compound 569, 7-[1-(2-hydroxyethyl)piperidin-4-yl]-2-(2-methyl-2H-indazol-5-yl)-4H-pyrazino[1,2-a]pyrimidin-4-one]	1000 to 3000 nM
Cc1cn2nc(-c3cc(=O)n4cc(N5CC[C@@H](CN(C)C)C5)ccc4n3)cc2c(C)n1 [compound 770, 7-{(3S)-3-[(dimethylamino)methyl]pyrrolidin-1-yl}-2-(4,6-dimethylpyrazolo[1,5-a]pyrazin-2-yl)-4H-pyrido[1,2-a]pyrimidin-4-one]	3000 to 33000 nM
CCN1CCC(c2ccc3nc(-c4cc(C)c5nn(C)cc5c4)cc(=O)n3c2)CC1 [compound 753, 2-(2,7-dimethyl-2H-indazol-5-yl)-7-(1-ethylpiperidin-4-yl)-4H-pyrido[1,2-a]pyrimidin-4-one]	100 to 500 nM
CN(C)c1ccc(-c2cc(=O)n3cc(C4CCNCC4)ccc3n2)cn1 [compound 465, 2-[6-(dimethylamino)pyridin-3-yl]-7-(piperidin-4-yl)-4H-pyrido[1,2-a]pyrimidin-4-one]	3000 to 33000 nM
Cc1nc(-c2cc(=O)n3cc(C4=CCNCC4)ccc3n2)cc2cnn(C)c12 [compound 861, 2-(1,7-dimethyl-1H-pyrazolo[3,4-c]pyridin-5-yl)-7-(1,2,3,6-tetrahydropyridin-4-yl)-4H-pyrido[1,2-a]pyrimidin-4-one hydrochloride (1:2)]	3000 to 33000 nM
Cc1cc(N2CCN[C@@H](C)C2)cn2c(=O)cc(-c3ccc4nn(C)cc4c3)nc12 [compound 756, 9-methyl-2-(2-methyl-2H-indazol-5-yl)-7-[(3S)-3-methylpiperazin-1-yl]-4H-pyrido[1,2-a]pyrimidin-4-one]	100 to 500 nM
Cc1cc(C2CCNCC2)cn2c(=O)cc(-c3ccc4nn(C)cc4c3)nc12 [compound 721, 9-methyl-2-(2-methyl-2H-indazol-5-yl)-7-(piperidin-4-yl)-4H-pyrido[1,2-a]pyrimidin-4-one]	500 to 1000 nM
Cc1cn2nc(-c3cc(=O)n4cc(N5CCN6CCC[C@H]6C5)ccc4n3)cc2c(C)n1 [compound 336, 2-(4,6-dimethylpyrazolo[1,5-a]pyrazin-2-yl)-7-[(8aS)-hexahydropyrrolo[1,2-a]pyrazin-2(1H)-yl]-4H-pyrido[1,2-a]pyrimidin-4-one]	3000 to 33000 nM
Cc1cn2cc(-c3cc(=O)n4cc(C5CCN(C(C)C)CC5)ncc4n3)cc(Cl)c2n1 [compound 595, 2-(8-chloro-2-methylimidazo[1,2-a]pyridin-6-yl)-7-[1-(propan-2-yl)piperidin-4-yl]-4H-pyrazino[1,2-a]pyrimidin-4-one]	1000 to 3000 nM
CN1CC=C(c2ccc3nc(-c4ccc5nn(C)cc5c4)cc(=O)n3c2)CC1 [compound 476, 2-(2-methyl-2H-indazol-5-yl)-7-(1-methyl-1,2,3,6-tetrahydropyridin-4-yl)-4H-pyrido[1,2-a]pyrimidin-4-one]	3000 to 33000 nM
CCc1nc(C)cn2nc(-c3cc(=O)n4cc(N(C)C5CC(C)(C)NC(C)(C)C5)cc(C)c4n3)cc12 [compound 851, 2-(4-ethyl-6-methylpyrazolo[1,5-a]pyrazin-2-yl)-9-methyl-7-[methyl(2,2,6,6-tetramethylpiperidin-4-yl)amino]-4H-pyrido[1,2-a]pyrimidin-4-one]	3000 to 33000 nM
